Km data for two molecules are collected here from PMC8304608, “Impact of Membrane Lipids on UapA and AzgA Transporter Subcellular Localization and Activity in Aspergillus nidulans” (Journal of Fungi, 2021).

One data set addresses T1, UapA (Aspergillus nidulans, UniProt Q07307).
T1 construct: full-length in native germinating conidiospores; GFP-tagged UapA under native promoter used for localization (functionally replaces untagged); homodimer
The data set can be described thus: radiolabelled uptake in germinating conidiospores. In kind it is cell-based. The note with it: apparent Km; wild-type lipid background; [8-3H]-xanthine 0.1 μM with unlabelled substrate 0.5-1000 μM; pH 6.8, 37 °C; labelled compound; background of strain lacking transporter subtracted; read-out: Xanthine Uptake Kinetics / Km. The source says: radiolabelled uptake in germinating conidiospores on UapA

Substrate in data set [1]: Nc1ncnc2nc[nH]c12
The data set can be described thus: radiolabelled uptake in germinating conidiospores. Conditions: apparent Km, wild-type lipid background, [2,8-3H]-adenine 0.1 μM with unlabelled substrate 0.5-1000 μM, pH 6.8, 37 °C, labelled compound, background of strain lacking transporter subtracted. In kind it is cell-based, Aspergillus nidulans. An excerpt: radiolabelled uptake in germinating conidiospores on AzgA

T1 sequence (Q07307 whole entry): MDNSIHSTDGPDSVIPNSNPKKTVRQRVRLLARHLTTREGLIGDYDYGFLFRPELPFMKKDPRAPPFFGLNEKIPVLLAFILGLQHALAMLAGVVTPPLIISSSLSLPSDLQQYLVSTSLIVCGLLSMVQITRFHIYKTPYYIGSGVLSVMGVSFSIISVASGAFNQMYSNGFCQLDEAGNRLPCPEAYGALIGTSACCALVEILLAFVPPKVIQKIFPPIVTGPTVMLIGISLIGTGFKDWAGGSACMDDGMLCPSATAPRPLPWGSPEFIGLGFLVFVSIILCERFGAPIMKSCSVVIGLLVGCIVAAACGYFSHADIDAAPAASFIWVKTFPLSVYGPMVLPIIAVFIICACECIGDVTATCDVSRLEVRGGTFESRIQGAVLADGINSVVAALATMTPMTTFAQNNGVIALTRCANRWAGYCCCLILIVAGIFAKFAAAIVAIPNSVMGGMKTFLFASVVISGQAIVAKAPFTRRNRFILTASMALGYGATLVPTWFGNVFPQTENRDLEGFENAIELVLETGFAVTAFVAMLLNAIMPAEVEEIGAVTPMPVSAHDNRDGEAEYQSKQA

In the case of `O=c1[nH]c(=O)c2[nH]cnc2[nH]1` [xanthine], the Km on UapA turned out to be 5 ± 1 µM.

B1: AzgA (Aspergillus nidulans) (protein)
chain: MGYAEWIGRTNAAVARSPVGRWFRLEGSGHPRERKGAYFFTELRAGLATFFAMAYIISVNANITSDTGGTCVCPAEDLATACDNNTEYLLCKQEVNRDLVTATAAIAAIASFFLGLLANLPVALAPGMGLNAYFAYTVVGHHGTGLIPYSLAVTAVFVEGWIFLGLTLLGIRQWLARAIPASIKLATGAGIGLYLTLIGLSYSAGLGVVQGGTSSPIQLAGCASDTFGDDGLCPSSEKMRNPTMWIGIFCGGVFTVFLMMYRVKGAVIAGILLVSIISWPRPTPVTYFPHTETGDSSFDFFKKVVTFHPIQHTLVAQEWNISSNGGQFGLALITFLYVDILDATGTLYSMAKFAGAMDERTQDFEGSAMAYMVDAICISIGSLFGSPPVTAFVESGAGISEGGKTGLTSCMTGICFFIAVFFAPIFASIPPWATGSTLVIVGSMMMHATLEINWRYLGDAVPAFLTISLMPFTYSIADGLIAGILSYILINGGVWIVAKLTGGRISPPNREEEHEPWTWKIPGGFFPPWLVRAVHGKKDFWRAEDDANDLSLGVMPHGSLSSQDRAGEKLASSKEQVTEK
notes: full-length in native germinating conidiospores; GFP-tagged AzgA under native promoter used for localization (functionally replaces untagged)
B1: in data set [1], the Km was found to be 3 ± 1 µM.
